Measured values from article PMC5342071, “A first generation inhibitor of human Greatwall kinase, enabled by structural and functional characterisation of a minimal kinase domain construct” (Oncotarget, 2016).

What was measured:
hGWL^FL = target: T1, hGWL^FL (Homo sapiens, UniProt Q96GX5); assay: Immunoprecipitation kinase assay with Flag-tagged hGWL^FL (p-ENSA western); assay type: biochemical; conditions: for IC50: immunoprecipitated Flag-tagged hGWL^FL, read-out: IC50 GWL^FL
T1 construct: N-terminally FLAG-tagged full-length human GWL; made in house; host or cells: HEK293T cells, transfected and nocodazole-arrested; protein captured on anti-Flag M2 beads
T1 sequence (Q96GX5 1-879): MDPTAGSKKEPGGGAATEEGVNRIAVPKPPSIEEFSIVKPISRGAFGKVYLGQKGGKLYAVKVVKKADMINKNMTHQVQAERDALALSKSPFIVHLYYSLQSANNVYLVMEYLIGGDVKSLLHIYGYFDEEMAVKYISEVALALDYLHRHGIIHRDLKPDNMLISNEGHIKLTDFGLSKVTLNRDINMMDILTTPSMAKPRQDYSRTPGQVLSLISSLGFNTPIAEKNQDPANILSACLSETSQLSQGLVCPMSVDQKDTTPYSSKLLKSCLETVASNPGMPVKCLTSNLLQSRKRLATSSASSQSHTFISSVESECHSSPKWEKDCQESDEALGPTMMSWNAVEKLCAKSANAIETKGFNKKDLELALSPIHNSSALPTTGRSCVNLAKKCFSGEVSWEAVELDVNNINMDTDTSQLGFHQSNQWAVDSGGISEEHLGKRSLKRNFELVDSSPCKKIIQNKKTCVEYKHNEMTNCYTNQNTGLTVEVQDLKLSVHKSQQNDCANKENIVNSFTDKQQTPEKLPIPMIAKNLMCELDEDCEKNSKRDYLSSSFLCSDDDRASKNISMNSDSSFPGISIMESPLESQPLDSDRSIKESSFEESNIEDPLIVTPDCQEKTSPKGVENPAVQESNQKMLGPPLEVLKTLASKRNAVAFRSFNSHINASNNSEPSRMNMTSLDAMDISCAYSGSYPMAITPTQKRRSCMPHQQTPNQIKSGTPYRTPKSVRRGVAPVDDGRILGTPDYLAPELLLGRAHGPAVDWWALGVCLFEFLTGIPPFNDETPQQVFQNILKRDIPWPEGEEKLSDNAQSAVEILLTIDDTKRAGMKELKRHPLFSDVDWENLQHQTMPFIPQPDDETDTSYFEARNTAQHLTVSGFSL
Experimental: 500 mM NaCl, and 0.5 mM TCEP) diluted to desired concentration or immunoprecipitated hGWL on beads with ultra-pure ATP [Promega, 25 µM] and His-tagged substrate  α-endosulfine (ENSA, 2 µM) in kinase assay buffer (50 mM Tris-HCl pH 7.5, 0.5 mM EGTA, 150 mM NaCl, 0.1% v/v NP-40 and 15 mM MgCl2). The […]
(dithiothreitol), 50% v/v Glycerol, 10% v/v SDS (sodium dodecyl sulphate), and 0.25M Tris-HCl pH 6.8) or Kinase-Glo Max reagent [Promega]. Recombinant His-tagged ENSA was purified using Ni-NTA agarose [QIAGEN] from BL21 E. coli following the manufacturer’s recommended protocol. […]
(§1) All kinase assays were repeated thrice per assay condition and each point on the concentration-dependent response curves represents the mean ± […]
Immunoprecipitation Kinase Assay
HEK293T cells were transfected with 10 µg of plasmid (Flag-tagged hGWLFL or GFP; pcDNA3-EGFP, Addgene, Cambridge MA, USA) using CaCl2. […]
incubated for a further 16–18 h. Cells were collected and washed in PBS-A followed by lysis on ice for 20 min in 1mL IP buffer (50 mM Tris-HCl pH 7.5, 150 mM NaCl, 10% v/v glycerol, 0.5% v/v NP-40, 1 mM EDTA supplemented with protease and phosphatase inhibitors (Complete and PhosStop; Roche Diagnostics)). Samples were then sonicated and clarified by centrifugation at 13,000 rpm for 30 min at 4°C. To capture Flag-tagged […]
hGWLFL, 100 µl of lysate was diluted 5-fold with IP buffer and combined with 3 µl anti-Flag M2 magnetic Dynabeads [Sigma-Aldrich] overnight at 4 °C. After sequential washes with IP buffer, 1:1 mix of IP and kinase assay buffers and a final wash in kinase assay buffer, the beads were then used in the kinase assay. The reaction was stopped by adding SDS loading buffer and analysed by western blot: p-ENSA and GWL levels were detected using the anti-phospho(Ser67)-ENSA and anti-MASTL(GWL, Prestige) antibodies. Activity was measured as the p-ENSA/GWL ratio and % kinase activity was normalised to the DMSO control. All kinases assays were repeated thrice per assay condition and each point on the concentration-dependent response curves represents the mean ± 1 S.D. […]

hGWL-KinDom = target: T2, hGWL-KinDom (Homo sapiens, UniProt Q96GX5); assay: Kinase-Glo Max luminescence kinase assay with hGWL-KinDom; assay type: biochemical; conditions: Kinase-Glo Max assay; read-out: IC50 GWL-KinDom
T2 construct: that encoded amino acids (aa) 1-194 + ‘RTFC’ + 740-879 of hGWL; GST (rhinovirus 3C-protease cleavable) (N, cleaved yes); made in house; host or cells: E. coli Rosetta2(DE3)
Experimental: Non-radioactive kinase assays were set-up by combining hGWL-KinDom (305 µM in 20 mM HEPES pH 7.5, FL 500 mM NaCl, and 0.5 mM TCEP) diluted to desired concentration or immunoprecipitated hGWL on beads with ultra-pure ATP [Promega, 25 µM] and His-tagged substrate  α-endosulfine (ENSA, 2 µM) in kinase assay buffer (50 mM Tris-HCl pH 7.5, 0.5 mM EGTA, 150 mM NaCl, 0.1% v/v NP-40 and 15 mM MgCl2). The reaction was allowed to proceed for 30 min at 37 °C or another indicated time-point after which it was stopped with either SDS loading buffer (5X buffer, including 0.25 % w/v Bromophenol blue, 0.5 M DTT (dithiothreitol), 50% v/v Glycerol, 10% v/v SDS (sodium dodecyl sulphate), and 0.25M Tris-HCl pH 6.8) or Kinase-Glo Max reagent [Promega]. Recombinant His-tagged ENSA was purified using Ni-NTA agarose [QIAGEN] from BL21 E. coli following the manufacturer’s recommended protocol. […]
as §1
After stopping the above non-radioactive kinase assay with 1 volume of Kinase-Glo Max reagent the mixture was allowed to incubate for a further 15 min. To detect consumption of ATP, samples were transferred to white, flat-bottom 96-well plates [Thermo Fisher Scientific, Loughborough, UK] and luminescence was detected using a POLARstar Omega micro-plate reader [BMG Labtech GmbH, Ortenberg, Germany]. As this assay measures ATP, activity or ATP turnover was measured as the -ΔRLU. […]

T2 sequence (Q96GX5 with tags, fused parts or gaps limits assumed): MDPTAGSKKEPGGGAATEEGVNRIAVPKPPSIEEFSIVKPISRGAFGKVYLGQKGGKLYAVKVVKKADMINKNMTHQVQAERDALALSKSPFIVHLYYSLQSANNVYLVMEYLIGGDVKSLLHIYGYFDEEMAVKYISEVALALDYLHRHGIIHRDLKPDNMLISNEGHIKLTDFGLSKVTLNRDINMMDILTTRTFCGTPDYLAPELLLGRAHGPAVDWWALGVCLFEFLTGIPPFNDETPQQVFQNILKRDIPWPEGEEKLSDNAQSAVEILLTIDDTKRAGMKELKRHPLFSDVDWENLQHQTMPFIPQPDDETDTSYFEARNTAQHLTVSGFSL

| SMILES | inhibitory ratio (IC50 GWL^FL/IC50 GWL-KinDom) (hGWL^FL; for GKI-1: EC50 hGWL^FL vs IC50 hGWL-KinDom) | EC50 (hGWL^FL; immunoprecipitated hGWL^FL, read-out: EC50 GWL^FL) | IC50 (hGWL-KinDom) | IC50 (hGWL^FL) |
| --- | --- | --- | --- | --- |
| Clc1ccc(Nc2cccc(-c3cn[nH]c3)c2)cc1 [GKI-1, N-(4-chlorophenyl)-3-(1H-pyrazol-4-yl)aniline] | ~ 2 | 4.9 µM | 2.5 µM |  |
| CN(C)CC#Cc1cccc(C(=O)c2cnn(-c3ccc(F)cc3)c2N)c1 [GRI-3] |  |  | 109 ± 13.7 µM | 66 µM |
| CCN(CC)Cc1ccc(Nc2nccc(-c3cnn4ncccc34)n2)cc1 [GRI-4] |  |  | 3.22 ± 0.31 µM | 2.5 µM |
